Where a SMILES comes first, the peptide text is derived from it.

A short description of this series: Motilin immunoreactivity concentration in plasma, half-life after intravenous administration (Example 8). Conditions: male, SD, rat, in vivo, iv, 10 nmol/kg. The protocol: The experiment was carried out using rats into which polyethylene tube (PE-50 manufactured by Clay Adams) was inserted into thigh artery under an anesthetized condition with Nembutal. As to a test system, male SD strain rats (Nippon Charles River) of 7 weeks age were used where one group comprised 3 rats. Human motilin or a derivative thereof in a dose of 10 nmol/kg was administered into tail vein of the rat and the blood before the administration and until 60 minutes after the administration was periodically collected by a polyethylene tube inserted into the thigh artery. To the collected blood were added EDTA (manufactured by Dojin Laboratories) and aprotinin (manufactured by Bayer) as a stabilizer and an anti-coagulant, respectively and the plasma was separated therefrom by centrifugal separation. Motilin immunoreactivity concentration in plasma was measured by a competitive radioimmunoassay (RIA) (FIG. 8). At that time, a rabbit polyclonal antibody (#870623) which specifically recognizes the amino acid numbers 1 to 12 of native motilin shown by SEQ ID No: 102 was used as an antibody and, as a labeled compound, ^125I-[Tyr^7] human motilin was used.
For the molecule `CC[C@H](C)[C@H](NC(=O)[C@@H]1CCCN1C(=O)[C@@H](NC(=O)[C@@H](N)Cc1ccccc1)C(C)C)C(=O)N[C@@H](Cc1ccccc1)C(=O)N[C@H](C(=O)N[C@@H](Cc1ccc(O)cc1)C(=O)NCC(=O)N[C@@H](CCC(=O)O)C(=O)N[C@@H](CC(C)C)C(=O)N[C@@H](CCC(N)=O)C(=O)N[C@@H](CCCNC(=N)N)C(=O)N[C@H](C(=O)N[C@@H](CCC(N)=O)C(=O)N[C@@H](CCC(N)=O)C(=O)N[C@@H](CCCNC(=N)N)C(=O)N[C@@H](CCCCN)C(=O)N[C@@H](CCC(=O)O)C(=O)N[C@@H](CC(C)C)C(=O)N[C@@H](CCCCN)C(=O)N[C@@H](CCCCN)C(=O)N1CCC[C@H]1C(=O)N1CCC[C@H]1C(=O)N[C@@H](C)C(=O)N[C@@H](CCCCN)C(=O)N[C@@H](CC(C)C)C(=O)N[C@@H](CCC(N)=O)C(=O)N1CCC[C@H]1C(=O)N[C@@H](CCCNC(=N)N)C(=O)O)C(C)C)[C@@H](C)O` [Chimeric motilin (R)(MG-18S/L)] (H-FVPIFTYGELQRVQQRKELKKPPAKLQPR-OH; N-terminus and C-terminus assumed), the half-life (in general, the time in which the quantity being followed falls by half) was found to be 9.13 min. Molecule `CC[C@H](C)[C@H](NC(=O)[C@@H]1CCCN1C(=O)[C@@H](NC(=O)[C@@H](N)Cc1ccccc1)C(C)C)C(=O)N[C@@H](Cc1ccccc1)C(=O)N[C@H](C(=O)N[C@@H](Cc1ccc(O)cc1)C(=O)NCC(=O)N[C@@H](CCC(=O)O)C(=O)N[C@@H](CC(C)C)C(=O)N[C@@H](CCC(N)=O)C(=O)N[C@@H](CCCNC(=N)N)C(=O)N[C@H](C(=O)N[C@@H](CCC(N)=O)C(=O)N[C@@H](CCC(N)=O)C(=O)N[C@@H](CCCNC(=N)N)C(=O)N[C@@H](CCCCN)C(=O)N[C@@H](CCC(=O)O)C(=O)N[C@@H](C)C(=O)N[C@@H](CCCCN)C(=O)N[C@@H](CCCCN)C(=O)N1CCC[C@H]1C(=O)N1CCC[C@H]1C(=O)N[C@@H](C)C(=O)N[C@@H](CCCCN)C(=O)N[C@@H](CC(C)C)C(=O)N[C@@H](CCC(N)=O)C(=O)N1CCC[C@H]1C(=O)N[C@@H](CCCNC(=N)N)C(=O)O)C(C)C)[C@@H](C)O` [Chimeric motilin (S)(MG-18S/A)] (H-FVPIFTYGELQRVQQRKEAKKPPAKLQPR-OH; N-terminus and C-terminus assumed) displayed a half-life of 9.29 min. To `CC[C@H](C)[C@H](NC(=O)[C@@H]1CCCN1C(=O)[C@@H](NC(=O)[C@@H](N)Cc1ccccc1)C(C)C)C(=O)N[C@@H](Cc1ccccc1)C(=O)N[C@H](C(=O)N[C@@H](Cc1ccc(O)cc1)C(=O)NCC(=O)N[C@@H](CCC(=O)O)C(=O)N[C@@H](CC(C)C)C(=O)N[C@@H](CCC(N)=O)C(=O)N[C@@H](CCCNC(=N)N)C(=O)N[C@H](C(=O)N[C@@H](CCC(N)=O)C(=O)N[C@@H](CCC(N)=O)C(=O)N[C@@H](CCCNC(=N)N)C(=O)N[C@@H](CCCCN)C(=O)N[C@@H](CC(N)=O)C(=O)N[C@@H](CO)C(=O)N[C@@H](CCCCN)C(=O)N[C@@H](CCCCN)C(=O)N1CCC[C@H]1C(=O)N1CCC[C@H]1C(=O)N[C@@H](C)C(=O)N[C@@H](CCCCN)C(=O)N[C@@H](CC(C)C)C(=O)N[C@@H](CCC(N)=O)C(=O)N1CCC[C@H]1C(=O)N[C@@H](CCCNC(=N)N)C(=O)O)C(C)C)[C@@H](C)O` [Chimeric motilin (T)(MG-17E/N)] (H-FVPIFTYGELQRVQQRKNSKKPPAKLQPR-OH; N-terminus and C-terminus assumed) belongs 5.47 min. Molecule `CC[C@H](C)[C@H](NC(=O)[C@@H]1CCCN1C(=O)[C@@H](NC(=O)[C@@H](N)Cc1ccccc1)C(C)C)C(=O)N[C@@H](Cc1ccccc1)C(=O)N[C@H](C(=O)N[C@@H](Cc1ccc(O)cc1)C(=O)NCC(=O)N[C@@H](CCC(=O)O)C(=O)N[C@@H](CC(C)C)C(=O)N[C@@H](CCC(N)=O)C(=O)N[C@@H](CCCNC(=N)N)C(=O)N[C@H](C(=O)N[C@@H](CCC(N)=O)C(=O)N[C@@H](CCC(N)=O)C(=O)N[C@@H](CCCNC(=N)N)C(=O)N[C@@H](CCCCN)C(=O)N[C@@H](CCC(N)=O)C(=O)N[C@@H](CO)C(=O)N[C@@H](CCCCN)C(=O)N[C@@H](CCCCN)C(=O)N1CCC[C@H]1C(=O)N1CCC[C@H]1C(=O)N[C@@H](C)C(=O)N[C@@H](CCCCN)C(=O)N[C@@H](CC(C)C)C(=O)N[C@@H](CCC(N)=O)C(=O)N1CCC[C@H]1C(=O)N[C@@H](CCCNC(=N)N)C(=O)O)C(C)C)[C@@H](C)O` [Chimeric motilin (U)(MG-17E/Q)] (H-FVPIFTYGELQRVQQRKQSKKPPAKLQPR-OH; N-terminus and C-terminus assumed) came in with a half-life of 5.66 min. Regarding `CC[C@H](C)[C@H](NC(=O)[C@@H]1CCCN1C(=O)[C@@H](NC(=O)[C@@H](N)Cc1ccccc1)C(C)C)C(=O)N[C@@H](Cc1ccccc1)C(=O)N[C@H](C(=O)N[C@@H](Cc1ccc(O)cc1)C(=O)NCC(=O)N[C@@H](CCC(=O)O)C(=O)N[C@@H](CC(C)C)C(=O)N[C@@H](CCC(N)=O)C(=O)N[C@@H](CCCNC(=N)N)C(=O)N[C@H](C(=O)N[C@@H](CCC(N)=O)C(=O)N[C@@H](CCC(N)=O)C(=O)N[C@@H](CCCNC(=N)N)C(=O)N[C@@H](CCCCN)C(=O)N[C@@H](CCC(=O)O)C(=O)N[C@@H](CO)C(=O)N[C@@H](CCCCN)C(=O)N[C@@H](CCCCN)C(=O)N[C@@H](C)C(=O)N[C@@H](CCCCN)C(=O)N[C@@H](CC(C)C)C(=O)N[C@@H](C)C(=O)N[C@@H](C)C(=O)N[C@@H](CC(C)C)C(=O)N[C@@H](CCCCN)C(=O)N[C@@H](C)C(=O)O)C(C)C)[C@@H](C)O` [Chimeric motilin (V) (MG-dPPH1)] (H-FVPIFTYGELQRVQQRKESKKAKLAALKA-OH; N-terminus and C-terminus assumed), the half-life is 8.94 min. Molecule `CC[C@H](C)[C@H](NC(=O)[C@@H]1CCCN1C(=O)[C@@H](NC(=O)[C@@H](N)Cc1ccccc1)C(C)C)C(=O)N[C@@H](Cc1ccccc1)C(=O)N[C@H](C(=O)N[C@@H](Cc1ccc(O)cc1)C(=O)NCC(=O)N[C@@H](CCC(=O)O)C(=O)N[C@@H](CC(C)C)C(=O)N[C@@H](CCC(N)=O)C(=O)N[C@@H](CCCNC(=N)N)C(=O)N[C@H](C(=O)N[C@@H](CCC(N)=O)C(=O)N[C@@H](CCC(N)=O)C(=O)N[C@@H](CCCNC(=N)N)C(=O)N[C@@H](CCCCN)C(=O)N[C@@H](CC(=O)O)C(=O)N[C@@H](CO)C(=O)N[C@@H](CCCCN)C(=O)N[C@@H](CCCCN)C(=O)N1CCC[C@H]1C(=O)N1CCC[C@H]1C(=O)N[C@@H](C)C(=O)N[C@@H](CCCCN)C(=O)N[C@@H](CC(C)C)C(=O)N[C@@H](CCC(N)=O)C(=O)N1CCC[C@H]1C(=O)N[C@@H](CCCNC(=N)N)C(=O)O)C(C)C)[C@@H](C)O` [Chimeric motilin (V)(MG-ES/DS)] (H-FVPIFTYGELQRVQQRKDSKKPPAKLQPR-OH; N-terminus and C-terminus assumed) gave a half-life of 10.1 min.

The values are drawn from patent US8551937B2, “Peptide having an extending action for half-life of object peptide in plasma” (priority 2008, dated 2013).
